Experimental data as given in patent US11358957B2, “Microbiocidal oxadiazole derivatives” (SYNGENTA PARTICIPATIONS AG, priority 2017, dated 2022).

Key:
[1] = test system: Glomerella lagenarium (Colletotrichum lagenarium); test: Fungicidal activity against Glomerella lagenarium (Colletotrichum lagenarium) liquid culture / cucumber / preventative (anthracnose); format: cell-based; conditions: Colletotrichum orbiculare; 20 ppm in the applied formulation; liquid culture (PDB), inhibition of growth measured photometrically 3 to 4 days after application; compared to untreated; read-out: disease control
In short: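 Conidia from cryogenic storage mixed into potato dextrose broth and added to compound in DMSO in microtiter plates. Incubated at 24° C.; growth inhibition read photometrically 3 to 4 days after application. Disease control expressed relative to untreated control, with compound at 20 ppm in the applied formulation.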

[2] = test system: Puccinia recondita f. Sp. Tritici; test: Fungicidal activity against Puccinia recondita f. sp. tritici / wheat / leaf disc curative (brown rust); format: in vivo; conditions: foliar, 24 h, 200 ppm in the applied formulation, wheat leaf segments cv. Kanzler, curative (applied 1 day after inoculation), compared to untreated, read-out: disease control
In short: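 Wheat leaf segments (cv. Kanzler) on agar were inoculated with brown rust spores, kept dark at 19 °C and 75% RH, then sprayed 1 day later with compound (DMSO stock diluted in 0.025% Tween20). Under 12 h light/12 h dark at 19 °C, percent disease control versus untreated was scored 6–8 days after application; 200 ppm applied.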

Phakopsora pachyrhizi = test: Fungicidal activity against Phakopsora pachyrhizi / soybean / leaf disc preventative (Asian soybean rust); format: in vivo; conditions: foliar, 200 ppm in the applied formulation, soybean leaf disks, compared to untreated, read-out: disease control
Method: Leaf disks or leaf segments of various plant species are cut from plants grown in a greenhouse. The cut leaf disks or segments are placed in multiwell plates (24-well format) onto water agar. The leaf disks are sprayed with a test solution before (preventative) or after (curative) inoculation. Compounds to be tested are prepared as DMSO solutions (max. 10 mg/mL) which are diluted to the appropriate concentration with 0.025% Tween20 just before spraying. The inoculated leaf disks or segments are incubated under defined conditions (temperature, relative humidity, light, etc.) according to the respective test system. A single evaluation of disease level is carried out 3 to 14 days after inoculation, depending on the pathosystem. Percent disease control relative to the untreated check leaf disks or segments is then calculated. Soybean leaf disks are placed on water agar in multiwell plates (24-well format) and sprayed with the formulated test compound diluted in water. One day after application leaf discs are inoculated by spraying a spore suspension on the lower leaf surface. After an incubation period in a climate cabinet of 24-36 hours in darkness at 20° C. and 75% rh leaf disc are kept at 20° C. with 12 h light/day and 75% rh. The activity of a compound is assessed as percent disease control compared to untreated when an appropriate level of disease damage appears in untreated check leaf disks (12 to 14 days after application). The following compounds at 200 ppm in the applied formulation give at least 80% disease control in this test when compared to untreated control leaf disks under the same conditions, which show extensive disease development.

[3] = test system: Puccinia recondita f. Sp. Tritici; test: Fungicidal activity against Puccinia recondita f. sp. tritici / wheat / leaf disc preventative (brown rust); format: in vivo; conditions: foliar, 200 ppm in the applied formulation, wheat leaf segments cv. Kanzler, preventative (inoculated 1 day after application), compared to untreated, read-out: disease control
In short: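 Segments of wheat cv. Kanzler on water agar were sprayed with compound and inoculated with spores 1 day later. They were kept at 19 °C, 75% rh and 12 h light/12 h dark. Percent disease control versus untreated was scored 7–9 days after application; compounds were tested at 200 ppm.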

melting point | Compound | inhibition of growth at 20 ppm [1] | pest or weed control at 200 ppm [2] | pest or weed control at 200 ppm (Phakopsora pachyrhizi) | pest or weed control at 200 ppm [3]
– | COCc1nn(Cc2ccc(-c3noc(C(F)(F)F)n3)s2)cc1C(=O)OC [Compound 1.19, methyl 3-(methoxymethyl)-1-[[5-[5-(trifluoromethyl)-1,2,4-oxadiazol-3-yl]-2-thienyl]methyl]pyrazole-4-carboxylate] | ≥ 80% | ≥ 80% | ≥ 80% | ≥ 80%
– | COC(=O)c1ncn(Cc2ccc(-c3noc(C(F)(F)F)n3)s2)n1 [Compound 1.6, methyl 1-[[5-[5-(trifluoromethyl)-1,2,4-oxadiazol-3-yl]-2-thienyl]methyl]-1,2,4-triazole-3-carboxylate] | ≥ 80% | ≥ 80% | ≥ 80% | ≥ 80%
– | CCCOC(=O)c1ncnn1Cc1ccc(-c2noc(C(F)(F)F)n2)s1 [Compound 1.44, propyl 2-[[5-[5-(trifluoromethyl)-1,2,4-oxadiazol-3-yl]-2-thienyl]methyl]-1,2,4-triazole-3-carboxylate] | ≥ 80% | ≥ 80% | ≥ 80% | ≥ 80%
– | COc1ccc2ncn(Cc3ccc(-c4noc(C(F)(F)F)n4)s3)c2c1 [Compound 1.23, 3-[5-[(6-methoxybenzimidazol-1-yl)methyl]-2-thienyl]-5-(trifluoromethyl)-1,2,4-oxadiazole] | ≥ 80% | ≥ 80% | ≥ 80% | ≥ 80%
– | Cc1cccc(=O)n1C(C)c1ccc(-c2noc(C(F)(F)F)n2)s1 (stereo not shown) [Compound 1.33, 6-methyl-1-[1-[5-[5-(trifluoromethyl)-1,2,4-oxadiazol-3-yl]-2-thienyl]ethyl]pyridin-2-one] | ≥ 80% | ≥ 80% | ≥ 80% | ≥ 80%
– | COc1ccc2c(c1)ncn2Cc1ccc(-c2noc(C(F)(F)F)n2)s1 [Compound 1.24, 3-[5-[(5-methoxybenzimidazol-1-yl)methyl]-2-thienyl]-5-(trifluoromethyl)-1,2,4-oxadiazole] | ≥ 80% | ≥ 80% | ≥ 80% | ≥ 80%
– | CCOC(=O)c1ncnn1Cc1ccc(-c2noc(C(F)(F)F)n2)s1 [Compound 1.41, ethyl 2-[[5-[5-(trifluoromethyl)-1,2,4-oxadiazol-3-yl]-2-thienyl]methyl]-1,2,4-triazole-3-carboxylate] | ≥ 80% | ≥ 80% | ≥ 80% | ≥ 80%
145 to 165 °C | O=C(O)c1ccnn1Cc1ccc(-c2noc(C(F)(F)F)n2)s1 [Compound 1.64, 2-[[5-[5-(trifluoromethyl)-1,2,4-oxadiazol-3-yl]-2-thienyl]methyl]pyrazole-3-carboxylic acid] | ≥ 80% | ≥ 80% | – | ≥ 80%
133 to 143 °C | CC(c1ccc(-c2noc(C(F)(F)F)n2)s1)n1cc(C(=O)O)cn1 (stereo not shown) [Compound 1.37, 1-[1-[5-[5-(trifluoromethyl)-1,2,4-oxadiazol-3-yl]-2-thienyl]ethyl]pyrazole-4-carboxylic acid] | ≥ 80% | ≥ 80% | – | ≥ 80%
– | CCOC(=O)c1ccnn1Cc1ccc(-c2noc(C(F)(F)F)n2)s1 [Compound 1.45, ethyl 2-[[5-[5-(trifluoromethyl)-1,2,4-oxadiazol-3-yl]-2-thienyl]methyl]pyrazole-3-carboxylate] | ≥ 80% | ≥ 80% | ≥ 80% | ≥ 80%
210 to 220 °C | O=C(O)c1ncn(Cc2ccc(-c3noc(C(F)(F)F)n3)s2)n1 [Compound 1.63, 1-[[5-[5-(trifluoromethyl)-1,2,4-oxadiazol-3-yl]-2-thienyl]methyl]-1,2,4-triazole-3-carboxylic acid] | – | ≥ 80% | – | ≥ 80%
– | COC(=O)c1ccnn1Cc1ccc(-c2noc(C(F)(F)F)n2)s1 [Compound 1.54, methyl 2-[[5-[5-(trifluoromethyl)-1,2,4-oxadiazol-3-yl]-2-thienyl]methyl]pyrazole-3-carboxylate] | ≥ 80% | ≥ 80% | ≥ 80% | ≥ 80%
– | CCOC(=O)c1cnn(C(C)c2ccc(-c3noc(C(F)(F)F)n3)s2)c1 (stereo not shown) [Compound 1.30, ethyl 1-[1-[5-[5-(trifluoromethyl)-1,2,4-oxadiazol-3-yl]-2-thienyl]ethyl]pyrazole-4-carboxylate] | ≥ 80% | ≥ 80% | ≥ 80% | ≥ 80%
– | FC(F)(F)c1nc(-c2ccc(Cn3ccnc3)s2)no1 [Compound 1.17, 3-[5-(imidazol-1-ylmethyl)-2-thienyl]-5-(trifluoromethyl)-1,2,4-oxadiazole] | ≥ 80% | ≥ 80% | ≥ 80% | ≥ 80%
– | FC(F)(F)c1nc(-c2ccc(Cn3cnc4ccccc43)s2)no1 [Compound 1.25, 3-[5-(benzimidazol-1-ylmethyl)-2-thienyl]-5-(trifluoromethyl)-1,2,4-oxadiazole] | ≥ 80% | ≥ 80% | ≥ 80% | ≥ 80%
119 to 123 °C | CCOC(=O)c1cnn(Cc2cc(-c3noc(C(F)(F)F)n3)cs2)c1 [Compound 1.26, ethyl 1-[[4-[5-(trifluoromethyl)-1,2,4-oxadiazol-3-yl]-2-thienyl]methyl]pyrazole-4-carboxylate] | ≥ 80% | – | – | ≥ 80%
– | CC(c1ccc(-c2noc(C(F)(F)F)n2)s1)N1CCCCC1=O (stereo not shown) [Compound 1.34, 1-[1-[5-[5-(trifluoromethyl)-1,2,4-oxadiazol-3-yl]-2-thienyl]ethyl]piperidin-2-one] | ≥ 80% | ≥ 80% | ≥ 80% | ≥ 80%
– | CN(C)c1ncnn1Cc1ccc(-c2noc(C(F)(F)F)n2)s1 [Compound 1.13, N,N-dimethyl-2-[[5-[5-(trifluoromethyl)-1,2,4-oxadiazol-3-yl]-2-thienyl]methyl]-1,2,4-triazol-3-amine] | ≥ 80% | ≥ 80% | ≥ 80% | ≥ 80%
– | CCOC(=O)c1cnn(Cc2ccc(-c3noc(C(F)(F)F)n3)s2)c1 [Compound 1.1, ethyl 1-[[5-[5-(trifluoromethyl)-1,2,4-oxadiazol-3-yl]-2-thienyl]methyl]pyrazole-4-carboxylate] | ≥ 80% | ≥ 80% | ≥ 80% | ≥ 80%
– | COC(=O)c1ncnn1Cc1ccc(-c2noc(C(F)(F)F)n2)s1 [Compound 1.55, methyl 2-[[5-[5-(trifluoromethyl)-1,2,4-oxadiazol-3-yl]-2-thienyl]methyl]-1,2,4-triazole-3-carboxylate] | ≥ 80% | ≥ 80% | ≥ 80% | ≥ 80%
182 to 185 °C | O=C(O)c1cnn(Cc2ccc(-c3noc(C(F)(F)F)n3)s2)c1 [Compound 1.36, 1-[[5-[5-(trifluoromethyl)-1,2,4-oxadiazol-3-yl]-2-thienyl]methyl]pyrazole-4-carboxylic acid] | ≥ 80% | ≥ 80% | – | ≥ 80%
